Laboratory results: US20220009920A1 (GB005, Inc., priority 2020, published 2022)

Experiments:
Experiment in all cases: Large panel kinase profiling
Format in all cases: biochemical
Settings in all cases: 1 μM test article, 1 mM ATP
EPHA6 = target: T1, EPHA6 (Homo sapiens, UniProt Q9UF33)
T1 sequence (Q9UF33 23-1036): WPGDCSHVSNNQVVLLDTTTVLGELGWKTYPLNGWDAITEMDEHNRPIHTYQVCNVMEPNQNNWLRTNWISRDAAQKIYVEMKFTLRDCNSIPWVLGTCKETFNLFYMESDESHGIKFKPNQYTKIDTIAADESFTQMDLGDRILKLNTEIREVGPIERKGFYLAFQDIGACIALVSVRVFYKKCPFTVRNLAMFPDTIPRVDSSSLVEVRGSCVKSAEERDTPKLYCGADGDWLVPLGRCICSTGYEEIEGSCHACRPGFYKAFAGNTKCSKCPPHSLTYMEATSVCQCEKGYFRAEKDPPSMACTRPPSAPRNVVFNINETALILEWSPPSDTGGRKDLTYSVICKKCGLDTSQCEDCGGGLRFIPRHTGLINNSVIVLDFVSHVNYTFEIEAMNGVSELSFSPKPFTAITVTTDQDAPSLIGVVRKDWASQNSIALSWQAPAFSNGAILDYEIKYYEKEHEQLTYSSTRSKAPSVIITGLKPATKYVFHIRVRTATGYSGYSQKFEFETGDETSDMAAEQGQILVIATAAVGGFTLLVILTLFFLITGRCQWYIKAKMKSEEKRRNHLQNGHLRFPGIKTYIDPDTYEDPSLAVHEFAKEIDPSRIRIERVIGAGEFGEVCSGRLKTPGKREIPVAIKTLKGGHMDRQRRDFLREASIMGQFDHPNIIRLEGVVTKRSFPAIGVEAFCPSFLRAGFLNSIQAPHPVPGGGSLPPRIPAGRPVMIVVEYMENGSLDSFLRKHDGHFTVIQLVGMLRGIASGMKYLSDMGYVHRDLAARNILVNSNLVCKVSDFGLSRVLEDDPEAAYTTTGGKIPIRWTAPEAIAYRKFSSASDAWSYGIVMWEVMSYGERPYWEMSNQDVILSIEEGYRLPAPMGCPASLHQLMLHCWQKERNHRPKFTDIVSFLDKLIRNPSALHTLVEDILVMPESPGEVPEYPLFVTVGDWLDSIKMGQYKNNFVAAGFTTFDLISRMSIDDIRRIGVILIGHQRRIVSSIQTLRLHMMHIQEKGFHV
Summary of the method: (§1)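 Activity is measured in real time from the CSox sensor's fluorescence at 485 nm after 360 nm excitation, sampled every minute. Assays run at 30° C. with 1 mM ATP and a single 1 μM compound dose.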

NEK1 = target: T2, NEK1 (Homo sapiens, UniProt Q96PY6)
T2 construct: AssayQuant Technologies, Inc. (assay service)
T2 sequence (Q96PY6 1-1258): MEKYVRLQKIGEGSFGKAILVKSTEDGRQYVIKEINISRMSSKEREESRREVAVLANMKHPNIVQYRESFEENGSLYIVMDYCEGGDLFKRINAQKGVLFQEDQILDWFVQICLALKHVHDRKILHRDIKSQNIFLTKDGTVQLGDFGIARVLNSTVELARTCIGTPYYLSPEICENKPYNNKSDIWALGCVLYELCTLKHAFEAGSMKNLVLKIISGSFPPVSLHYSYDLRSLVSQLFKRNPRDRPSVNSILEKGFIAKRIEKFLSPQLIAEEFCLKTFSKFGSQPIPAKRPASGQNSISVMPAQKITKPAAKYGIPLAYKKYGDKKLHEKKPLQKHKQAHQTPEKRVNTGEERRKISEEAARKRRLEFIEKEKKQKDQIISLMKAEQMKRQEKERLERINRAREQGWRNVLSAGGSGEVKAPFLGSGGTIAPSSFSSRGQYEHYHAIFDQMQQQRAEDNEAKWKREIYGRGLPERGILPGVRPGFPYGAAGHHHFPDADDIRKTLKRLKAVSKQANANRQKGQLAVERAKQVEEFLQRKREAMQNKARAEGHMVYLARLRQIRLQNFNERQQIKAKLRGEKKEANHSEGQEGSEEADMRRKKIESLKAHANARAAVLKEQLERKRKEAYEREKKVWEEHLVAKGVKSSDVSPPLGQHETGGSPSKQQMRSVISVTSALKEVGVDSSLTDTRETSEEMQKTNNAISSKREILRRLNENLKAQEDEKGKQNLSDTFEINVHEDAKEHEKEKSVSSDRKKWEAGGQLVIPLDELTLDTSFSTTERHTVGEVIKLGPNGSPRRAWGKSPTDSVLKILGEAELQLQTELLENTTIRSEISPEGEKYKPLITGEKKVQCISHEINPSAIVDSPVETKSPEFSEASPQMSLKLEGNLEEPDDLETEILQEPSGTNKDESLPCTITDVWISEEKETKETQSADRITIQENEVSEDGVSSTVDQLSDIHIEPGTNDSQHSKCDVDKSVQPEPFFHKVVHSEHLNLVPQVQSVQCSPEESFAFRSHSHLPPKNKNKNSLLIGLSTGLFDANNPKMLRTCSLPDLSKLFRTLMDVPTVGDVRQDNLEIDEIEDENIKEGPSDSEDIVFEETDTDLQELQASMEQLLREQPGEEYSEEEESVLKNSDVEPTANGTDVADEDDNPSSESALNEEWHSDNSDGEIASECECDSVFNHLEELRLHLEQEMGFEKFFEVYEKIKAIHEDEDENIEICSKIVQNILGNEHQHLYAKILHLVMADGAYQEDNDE
Summary of the method: as §1

PAK3 = PAK3 (Homo sapiens, UniProt O75914)
Summary of the method: as §1

PAK2 = PAK2 (Homo sapiens, UniProt Q13177)
Summary of the method: as §1

RAF1 = RAF1 (Homo sapiens, UniProt P04049)
Summary of the method: as §1

SK2 = target: T3, SK2 (Homo sapiens, UniProt Q9H0K1)
T3 construct: AssayQuant Technologies, Inc. (contract assay)
Summary of the method: as §1

PAK2, sequence (Q13177 whole entry, species assumed): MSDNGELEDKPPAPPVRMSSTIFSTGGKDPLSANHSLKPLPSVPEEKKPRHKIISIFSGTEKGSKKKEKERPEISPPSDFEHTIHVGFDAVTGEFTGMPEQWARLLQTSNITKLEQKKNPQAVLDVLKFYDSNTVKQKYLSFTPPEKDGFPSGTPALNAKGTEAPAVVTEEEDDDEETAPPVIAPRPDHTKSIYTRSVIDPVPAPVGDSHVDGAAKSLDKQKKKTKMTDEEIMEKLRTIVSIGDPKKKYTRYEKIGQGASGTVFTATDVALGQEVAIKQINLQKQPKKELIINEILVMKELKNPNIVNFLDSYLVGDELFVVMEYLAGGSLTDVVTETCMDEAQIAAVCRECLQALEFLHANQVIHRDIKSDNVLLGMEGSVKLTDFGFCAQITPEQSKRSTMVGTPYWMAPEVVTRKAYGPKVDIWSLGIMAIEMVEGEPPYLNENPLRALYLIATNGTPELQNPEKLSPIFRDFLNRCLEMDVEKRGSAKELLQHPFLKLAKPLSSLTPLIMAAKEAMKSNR
PAK3, sequence (O75914 whole entry, species assumed): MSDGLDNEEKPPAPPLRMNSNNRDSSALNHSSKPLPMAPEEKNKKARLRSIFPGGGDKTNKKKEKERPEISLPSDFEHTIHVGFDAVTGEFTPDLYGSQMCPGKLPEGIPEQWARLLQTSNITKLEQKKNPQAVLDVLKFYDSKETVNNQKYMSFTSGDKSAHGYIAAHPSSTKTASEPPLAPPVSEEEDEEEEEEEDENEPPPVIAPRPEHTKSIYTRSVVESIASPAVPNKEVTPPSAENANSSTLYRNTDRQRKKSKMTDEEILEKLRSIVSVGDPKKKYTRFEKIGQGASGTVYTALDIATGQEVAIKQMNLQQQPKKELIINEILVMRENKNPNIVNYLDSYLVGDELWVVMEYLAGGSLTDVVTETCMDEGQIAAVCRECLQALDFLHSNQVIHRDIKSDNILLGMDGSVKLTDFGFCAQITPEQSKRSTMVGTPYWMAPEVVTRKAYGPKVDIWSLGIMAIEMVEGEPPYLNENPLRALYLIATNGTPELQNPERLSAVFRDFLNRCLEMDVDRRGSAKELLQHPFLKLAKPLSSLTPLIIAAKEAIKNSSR
RAF1, sequence (P04049 whole entry, species assumed): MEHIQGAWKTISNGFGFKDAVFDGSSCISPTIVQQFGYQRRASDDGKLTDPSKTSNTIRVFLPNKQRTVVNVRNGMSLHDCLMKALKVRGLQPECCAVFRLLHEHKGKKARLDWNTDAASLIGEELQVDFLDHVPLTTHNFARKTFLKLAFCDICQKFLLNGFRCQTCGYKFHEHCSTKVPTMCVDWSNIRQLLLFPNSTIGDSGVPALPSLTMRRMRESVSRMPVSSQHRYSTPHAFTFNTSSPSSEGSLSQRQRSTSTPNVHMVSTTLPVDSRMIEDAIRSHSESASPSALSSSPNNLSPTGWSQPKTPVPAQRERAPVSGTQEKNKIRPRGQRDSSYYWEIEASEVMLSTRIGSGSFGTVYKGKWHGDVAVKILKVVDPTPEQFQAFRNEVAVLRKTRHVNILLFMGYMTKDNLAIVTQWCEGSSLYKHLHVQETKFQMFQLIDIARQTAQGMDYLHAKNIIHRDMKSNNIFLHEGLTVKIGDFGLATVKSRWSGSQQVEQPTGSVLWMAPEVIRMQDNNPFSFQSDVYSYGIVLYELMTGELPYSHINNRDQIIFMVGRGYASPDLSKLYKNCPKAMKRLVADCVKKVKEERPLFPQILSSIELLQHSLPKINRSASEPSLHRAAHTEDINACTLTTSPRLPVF
T3 sequence (Q9H0K1 whole entry): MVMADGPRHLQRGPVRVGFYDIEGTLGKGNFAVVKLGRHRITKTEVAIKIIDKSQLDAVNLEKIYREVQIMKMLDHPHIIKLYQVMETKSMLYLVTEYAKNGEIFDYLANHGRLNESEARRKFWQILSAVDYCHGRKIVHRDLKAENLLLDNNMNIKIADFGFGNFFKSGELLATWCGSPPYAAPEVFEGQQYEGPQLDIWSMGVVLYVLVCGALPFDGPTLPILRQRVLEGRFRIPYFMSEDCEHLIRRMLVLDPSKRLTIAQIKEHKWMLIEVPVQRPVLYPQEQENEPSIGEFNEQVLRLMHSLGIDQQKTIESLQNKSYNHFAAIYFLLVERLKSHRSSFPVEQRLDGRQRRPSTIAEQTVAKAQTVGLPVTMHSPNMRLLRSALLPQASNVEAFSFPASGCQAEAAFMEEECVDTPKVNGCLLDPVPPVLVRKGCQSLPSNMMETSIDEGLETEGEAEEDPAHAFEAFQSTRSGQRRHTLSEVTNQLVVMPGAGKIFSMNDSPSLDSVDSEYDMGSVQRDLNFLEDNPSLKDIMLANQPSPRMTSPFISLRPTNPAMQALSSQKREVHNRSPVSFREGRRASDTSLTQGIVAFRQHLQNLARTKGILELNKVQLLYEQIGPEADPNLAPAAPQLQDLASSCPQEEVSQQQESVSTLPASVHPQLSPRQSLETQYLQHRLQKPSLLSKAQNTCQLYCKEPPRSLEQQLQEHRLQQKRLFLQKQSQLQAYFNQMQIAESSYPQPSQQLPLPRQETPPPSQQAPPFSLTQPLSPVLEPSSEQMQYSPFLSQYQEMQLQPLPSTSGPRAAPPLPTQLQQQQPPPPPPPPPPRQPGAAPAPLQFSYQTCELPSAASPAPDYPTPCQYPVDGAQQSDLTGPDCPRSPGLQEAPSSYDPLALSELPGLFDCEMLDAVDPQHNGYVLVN

## C=CC(=O)N1CCCC(c2c(F)cc(C(N)=O)c3[nH]c4c(c23)CCCCC4)C1 (single isomer, unassigned) [Compound 5-6]
EPHA6
  inhibition at 1 µM: 6.1%
NEK1
  inhibition at 1 µM: -3.1%
PAK3
  inhibition at 1 µM: 5.4%
PAK2
  inhibition at 1 µM: 13.9%
RAF1
  inhibition at 1 µM: 3.7%
SK2
  inhibition at 1 µM: -0.1%

## C=CC(=O)N1CCC[C@@H](c2c(F)cc(C(N)=O)c3[nH]c4c(c23)CCC4)C1 [Compound 10-2, (S)-8-(1-acryloylpiperidin-3-yl)-7-fluoro-1,2,3,4-tetrahydrocyclo-penta[b]indole-5-carboxamide]
EPHA6
  inhibition at 1 µM: -17.7%
NEK1
  inhibition at 1 µM: 11.8%
PAK3
  inhibition at 1 µM: 21.7%
PAK2
  inhibition at 1 µM: 7%
RAF1
  inhibition at 1 µM: -3.1%
SK2
  inhibition at 1 µM: 23.9%

## C=CC(=O)N1CCC[C@@H](c2c(F)cc(C(N)=O)c3[nH]c4c(c23)CC2(CC4)CC2)C1 [Compound 6-2, (S)-5-(1-acryloylpiperidin-3-yl)-6-fluoro-1,2,4,9-tetrahydrospiro[carbazole-3,1′-cyclopropane]-8-carboxamide]
EPHA6
  inhibition at 1 µM: -14.6%
NEK1
  inhibition at 1 µM: 7.9%
PAK3
  inhibition at 1 µM: 10.2%
PAK2
  inhibition at 1 µM: 1.3%
RAF1
  inhibition at 1 µM: 1%
SK2
  inhibition at 1 µM: 7.7%
